Entries after “also recorded” stand apart in the source; their conditions may differ. Marks after values point to notes of the source that are not given here.
Columns and labels:
Format in all cases: in vivo, rat
CNTF [1] = experiment: CNTF-like bioactivity of sciatic nerve homogenates (24 hour survival of E8CG neurons)
Description: (§1) These studies were conducted with the approval of the San Diego Veterans Administration Animal Studies Subcommittee. Female Sprague-Dawley rats (240-300 g; Charles River, San Diego, Calif.) were housed in cages with wire bottoms to reduce contact with urine and feces. Groups were established and fed either a 40% D-galactose diet or a control diet specially formulated by Purina that contained 40% solka floc, a nonnutritive fiber, to balance nutritional intake. All diets contained 100% of the micronutrients required by rats and, with water, were available ad libitum. Each of these diet groups contained animals that were treated with the ARI, Ponalrestat (50 mg/kg), daily by oral gavage. After two months, rats were anesthetized by intraperitoneal injection (1 ml/kg ip) of pentobarbital sodium (12.5 mg/ml) and diazepam (1.25 mg/ml) in bacteriostatic saline. Under deep anesthesia, motor nerve conduction velocity (MNCV) was measured in the left hindlimb prior to removal of the sciatic nerve. The proximal portion was processed for subsequent light microscopic examination and the distal portion used for gas chromatographic analysis of nerve polyols. The contralateral sciatic nerve was removed and used for assay of CNTF-like neurotrophic activity and either Northern blot or ELISA analysis of CNTF mRNA or protein, respectively.
Bioassays were performed on extracts of sciatic nerve as described previously by Calcutt et al. (1992) Brain Res. 575:320-324. Briefly, 4 mm segments were homogenized in cold Hank's balanced salt solution, centrifuged and the soluble supernatant aspirated. An aliquot of the supernatant was used to determine the amount of protein using the Bradford assay. The remaining supernatant was used to assay CNTF-like activity by the ability to support the 24 hour survival of day eight embryonic chick ciliary ganglia (E8CG) neurons. E8CG neurons were obtained from chick ciliary ganglia after trypsin treatment and trituration in Dulbecco's Modified Eagle's Medium plus 10% fetal calf serum (DMEM+10% FCS). After seeding onto a tissue culture dish for 2.5 hours to allow attachment of nonneuronal cells, unattached neurons were collected, counted and added to 96-well microtiter plates (500 neurons/well) precoated with polyornithine and laminin. Nerve homogenates were serially diluted in DMEM+10% FCS, added to the microtiter plates and incubated for 24 hours. A dose-response curve using rat recombinant CNTF was used as a standard and to establish the maximum CNTF effect for each assay. […] Cells were then fixed and the number of surviving, intact, blue-staining cells counted using phase contrast microscopy. […]

CNTF [2] = experiment: Sciatic nerve CNTF protein by ELISA; conditions: P<0.05
Description: as §1, with “The proximal portion was processed for subsequent light microscopic examination and the distal portion used for gas chromatographic analysis of nerve polyols. The contralateral sciatic nerve was removed and used for assay of CNTF-like neurotrophic activity and either Northern blot or ELISA analysis of CNTF mRNA or protein, respectively.” left out
CNTF protein was determined with an ELISA that utilizes a monoclonal capture antibody which recognizes a non-C-terminal epitope on both rat and human CNTF (Regeneron, Tarrytown, N.Y.). […] The reaction was stopped with 0.5 N H2SO4 and the plates read at two wavelengths (490 nm and 650 nm).

myelinated fibers = experiment: Axonal size-frequency distribution of myelinated fibers in sciatic nerve; conditions: galactose-fed rats
Description: as §1
For light microscopic examination, proximal portions of sciatic nerve were fixed in 2.5% phosphate-buffered glutaraldehyde (490 mosmol/kg H2O). Tissue was then postfixed in 1% aqueous osmium tetroxide for 3 to 4 hours before dehydration using a series of graded alcohols and propylene oxide. […]
In each animal, computer-assisted analysis of the axonal size-frequency distributions of myelinated fibers was performed on a single thick section sampled from the tibial fascicle midway between the sciatic notch and popliteal fossa as described in detail previously by Forcier et al. (1991) J. Neuropathol. […] Briefly, video images (Cohu, San Diego, Calif.) of the tibial fascicle obtained with an Olympus light microscope were analyzed using a VAXstation II/GPX processor (Digital Equipment Corp., Boston, Mass.) with data translation imaging hardware (DT 2651, Data Translation, Marlboro, Mass.) for digitization of single video frames and an image processing board (DT2658) for mathematical operations. […]
Two months of galactose feeding was associated with a shift in the axonal size-frequency distribution of myelinated fibers towards those with smaller diameter axons (FIG. 4). […] Data are presented as the mean ±SD (N=8 to 10 per group) and were analyzed with a one way ANOVA after which multiple comparisons were made with the Student-Newman-Keuls test. […]

CNTF [3] = experiment: Striatal CNTF levels by ELISA; conditions: adult rats, oral 50 mg/kg/day for two months
Description: CNTF protein was determined with an ELISA that utilizes a monoclonal capture antibody which recognizes a non-C-terminal epitope on both rat and human CNTF (Regeneron, Tarrytown, N.Y.). The captured CNTF was recognized by a polyclonal rabbit anti-rCNTF reporter antibody. An alkaline phosphatase-tagged goat anti-rabbit IgG was used to generate the signal. In practice, 96-well Immulon plates were coated with capture antibody overnight, then blocked and washed. After overnight incubation of standards and samples, plates were washed and reporter antibody added. Following final washes, the reaction was developed using the GIBCO BRL ELISA amplification system substrate and amplifier. The reaction was stopped with 0.5 N H2SO4 and the plates read at two wavelengths (490 nm and 650 nm).
ARIs Toirestat and Ponalrestat were orally administered to adult rats at a dose of 50 mg/kg/day for two months as described in Example 1 and in Mizisin et al (1997) Diabetes 46: 647-652. For each rat, the left and right striatum were dissected and combined for homogenization in phosphate buffered saline. CNTF levels in extract preparations were then measured by ELISA, as described in Example 1. Four rats served as controls, and five rats each received Tolrestat and Ponalrestat. Five ELISA assays were run for each rat and one mean value derived for each rat.

## O=C(O)Cc1nn(Cc2ccc(Br)cc2F)c(=O)c2ccccc12 [Ponalrestat, 3-(4-bromo-2-fluorobenzyl)-4-oxo-3H-phthalazin-1-ylacetic acid]
CNTF [1]; normal rats, survival of embryonic chick ciliary ganglia neurons
  Increase of CNTF associated activity compared to normal rats that did not receive any ARI: two and one-half fold increase
CNTF [1]; sciatic nerve, control diet rats, 50 mg/kg daily oral, two months
  Increase of CNTF-like bioactivity (TU/ml) compared to untreated control animals: ~250%
CNTF [1]; sciatic nerve, galactose-fed rats with ARI
  CNTF-like bioactivity relative to control levels: not restored to control levels
CNTF [1]; sciatic nerve, galactose-fed rats, 50 mg/kg daily oral, two months, P<0.05
  Increase of CNTF-like bioactivity (TU/ml) compared to the untreated galactose group: 60%
CNTF [2]; control animals
  Increase of CNTF detected by ELISA relative to untreated control rats: 50%
CNTF [2]; galactose-fed animals
  Increase of CNTF detected by ELISA relative to untreated control rats: 50%
Myelinated fibers; diameter >3 μm but <7 μm, Ponalrestat 50 mg/kg daily oral, two months
  Relative number, Medium myelinated axons: 45.2 ± 5.0^a %
Myelinated fibers; diameter ≦3 μm, Ponalrestat 50 mg/kg daily oral, two months
  Relative number, Small myelinated axons: 17.7 ± 4.9%
Myelinated fibers; diameter ≧7 μm, Ponalrestat 50 mg/kg daily oral, two months
  Relative number, Large myelinated axons: 37.1 ± 6.7^a %
Myelinated fibers
  Changes in axonal caliber: prevented
CNTF [3]
  Increase in striatal CNTF activity level versus control group: significantly increased; also recorded: approximately three-fold

Source: patent US6696407B1, “Huntington's disease treatment comprising administering aldose reductase inhibitors to increase striatal CNTF” (The Regents of the University of California, priority 1997, dated 2004)
